Laboratory results as given in patent EP0358766A1, “METHOD OF STERILIZING PLANT ANTHERS” (VSESOJUZNY NAUCHNO-ISSLEDOVATELSKY INST. SELSKOKHOZYAISTV. …, priority 1988, dated 1989).

How the values were obtained:
[1] = system: tetraploidem Roggen Belta; experiment: Field test of gametocidal activity, tetraploid rye Belta; format: in vivo; settings: period V, 1% aqueous emulsion, 6 kg/ha in 600 l water; for Prozentsatz des Ansetzens von Samen bei freier Bestäubung: control = 100
Description: (§1) Die gametozide Aktivität der erfindungsgemäßen Sterilisationsmittel war in Feldversuchen in verschiedenen bodenklimatischen Zonen mit Teilstücken von 10 m^2 Größe in dreibis viermaliger Wiederholung festgestellt. Jedes Sterilisationsmittel wurde mindenstens 5 Jahre lang geprüft.
(§2) Die Entwicklung der Perioden der Organogenese wird zytologisch überwacht. Die Behandlung von Pflanzen mit dem Sterilisationsmittel erfolgt am Anfang der fünften Periode der Organogenese nach Kupermann.
(§3) Mit dem Ährenschieben verwirklicht man die Isolierung von Hauptähren und anderen Stockwerken in Pergametbeuteln. Bei Weizen und Tritikale werden Einzelisolatoren benutzt. Bei Roggen schließt man je 1 Ähre von […] verschiedenen nebeneinander befindlichen Pflanzen unter einen gemeinsamen Isolator ein. Bei Hirse wird jede Rispe getrennt isoliert. Der Sterilitätsprozentsatz (X) für Weizen, Roggen, Tritikale und Hirse wird nach der Formel [formula] ermittelt.
(§4) Die Kornzahl in nicht isolierten Ähren von Kontrollpflanzen wird bedingt für 100 % Ansetzen bei freier Bestäubung angenommen.
(§5) Um zuverlässige Angaben zu erhalten, verwendet man 20 bis 25 Isolatoren je Wiederholung für Weizen und Tritikale, 10 bis 15 Isolatoren jeder Wiederholung für Roggen und Hirse.
Pflanzen von tetraploidem Roggen Belta werden in der V.Periode der Organogenese (nach Kupermann) mit einer 1%igen wäßrigen Emulsion von 1,1,3-Tribrompropan, 1,1,3--Tribrom-4-chlorbutan, 1,1,2,3-Tetrabrompropan, 1,2,3-Tribrompropan, 1,1,3-Tribrom-3-chlorpropan bzw. 1,2-Dibrom--3-chlorpropan behandelt.
Die Emulsion enthält 0,5 Masse% C12-C14-Kalziumalk^yl-benzolsulfonat und 0,01 Masse% Dimethylsulfoxid. Der Verbrauch an Präparat beträgt 6 kg/ha bei 600 1 Wasserdurchsatz.Die Prüfergebnisse sind in der Tabelle 7 angegeben. Die gleichen Ergebnisse sind bei der Behandlung von tetraploidem Roggen Belta in der VI. Periode der Organogenese erhalten.

[2] = system: Sommerweizens Sorte Moskowskaya 35; experiment: Field test of gametocidal activity, spring wheat Moskowskaya 35; format: in vivo, Weizen; settings: for Kornzahl der Ähre bei freier Bestäubung / Kornzahl der Ähre im Isolator / Prozentsatz des Ansetzens von Samen bei freier Bestäubung: Moskowskaya 35, period V, 1% aqueous emulsion, 6 kg/ha in 600 l water; for Prozentsatz des Ansetzens von Samen bei freier Bestäubung: control = 100; for pest or weed control at 6000 g/ha: read-out: Prozentsatz der Sterilität
Description: as §1, §2, §3, §4, §5
Pflanzen des Sommerweizens Sorte Moskowskaya 35 werden in der V. Periode der Organogenese (nach Kupermann) mit einer l%igen wäßrigen Emulsion von 1,1,3-Tribrompropan, […], 1,1,2,3-Tetrabrompropan, 1,2,3-Tribrompropan, 1,2-Dibrompropan, 1,1,3-Tribrom-3-chlorpropan, 1,2-Dibrom-3-chlorpropan, 1,3-Dibrompropan, 1,1,1,3-Tetrabromheptan bzw. 1,1,3-Tribromheptan behandelt. Die Emulsion enthält als Emulgierungsmittel 0,5 Masse% C12-C14-Kalzium- alkylbenzolsulfonat und als Adjuvans 0,01 Masse% Dimethylformamid. Der Verbrauch an Präparat beträgt 6 kg/ha bei 600 1 Wasserdurchsatz. Als Kontrolle dienen Pflanzen, behandelt mit dem Verdünner ohne Sterilisationsmittel.
Die Prüfergebnisse sind in der Tabelle 2 angegeben. Die gleichen Ergebnisse sind bei der Behandlung des Sommerweizens Sorte Moskowskaya 35 in der VI.Periode der Organogenese erhalten.

[3] = system: Winterweizens Sorte Mironowskaya 808; experiment: Field test of gametocidal activity (anther sterilisation), winter wheat Mironowskaya 808; format: in vivo, Weizen; settings: Mironowskaya 808, period V of organogenesis, 2% aqueous emulsion, 20 kg/ha in 1000 l water; for Prozentsatz des Ansetzens von Samen bei freier Bestäubung: control = 100
Description: as §1, §2, §3, §4, §5
Pflanzen des Winterweizens Sorte Mironowskaya 808 werden in der V.Periode der Organogenese durch Zerstäubung der 2%igen wäßrigen Emulsion von 1,1,3-Tribrompropan mit Hilfe einer Rückenspritze behandelt.
Als Emulgierungsmittel setzt man 0,5 Masse% C12-C14--Kalziumalkylbenzolsulphonat zu. Als Adjuvans enthält die Emulsion 0,01 Masse% Dimethylsulfoxid. Der Verbrauch an Präparat beträgt 20 kg/ha bei 1000 Liter Wasserdurchsatz. Als Kontrolle dienen Pflanzen, behandelt mit einem Verdünner ohne Sterilisationsmittel. Die Ergebnisse sind in der Tabelle 1 angegeben.
Der ProzeB wird analog zu dem in Beispiel 1 beschriebenen durchgeführt. Als Sterilisationsmittel verwendet man eine 2%ige waßrige Emulsion von 1,1,3-Tribrom-4-chlorbutan, 1,1,2,3-Tetrabrompropan. Die Prüfergebnisse sind in der Tabelle 1 angegeben.
Der Prozeß wird analog zu dem in Beispiel 1 beschriebenen durchgeführt, nur daß man 1%ige wäßrige Emulsion von 1,2,3-Tribrompropan, 1,2-Dibrompropan, 1,1,3-Tribrom-3--chlorpropan, 1,2-Dibrom-3-chlorpropan, 1,3-Dibrompropan, 1,1,1,3-Tetrabromheptan, 1,1,3-Tribromheptan, 1,2-Dibromheptan verwendet. Die Präparatdosis beträgt 10 kg ha. Die Prüfergebnisse sind in der Tabelle 1 angegeben. Die gleichen Ergebnisse sind bei der Behandlung des Weizens Sorte Mironowskaya 808 in der VI. Periode der Organogenese erhalten.

[4] = system: Winterweizens Sorte Mironowskaya 808; experiment: as above; format: in vivo, Weizen; settings: read-out: Prozentsatz der Sterilität %
[5] = system: diploidem Roggen Voskhod 2; experiment: Field test of gametocidal activity, diploid rye Voskhod 2; format: in vivo; settings: period V, 1% aqueous emulsion, 10 kg/ha in 1000 l water; for Prozentsatz des Ansetzens von Samen bei freier Bestäubung: control = 100
Description: as §1, §2, §3, §4, §5
Pflanzen von diploidem Roggen Voskhod 2 werden in der V. Periode der Organogenese mit einer 1%igen wäßrigen Emulsion von 1,1,3-Tribrompropan, 1,1,3-Tribrom-4-chlorbutan bzw. 1,1,2,3-Tetrabrompropan behandelt. Die Emulsion enthält 0,5 Masse% C12-C14-Kalziumalkylbenzolsulfonat und 0,01 Masse% Dimethylformamid. Der Verbrauch an Präparat beträgt 10 kg/ha bei 1000 1 Wasserdurchsatz. Die Prüfergebnisse sind in der Tabelle 14 angegeben. Die gleichen Ergebnisse sind bei der Behandlung von diploidem Roggen Voskhod 2 in der VI. Periode der Organogenese erhalten..

diploidem Roggen Chulpan = experiment: Field test of gametocidal activity, diploid rye Chulpan; format: in vivo; settings: for Kornzahl der Ähre bei freier Bestäubung / Kornzahl der Ähre im Isolator / Prozentsatz des Ansetzens von Samen bei freier Bestäubung: Chulpan, period V, 1% aqueous emulsion, 10 kg/ha; for Prozentsatz des Ansetzens von Samen bei freier Bestäubung: control = 100; for pest or weed control at 10000 g/ha: read-out: Prozentsatz der Sterilität
Description: as §1, §2, §3, §4, §5
Pflanzen von diploidem Roggen Chulpan werden in der V.Periode der Organogenese mit einer 1%igen wäßrigen Emulsion von 1,1,3-Tribrompropan, 1,1,3-Tribrom-4-chlorbutan, 1,1,2,3-Tetrabrompropan, 1,2,3-Tribrompropan, 1,2-Dibrompropan, 1,1,3-Tribrom-3-ohlorpropan, 1,2-Dibrom-3--chlorpropan, 1,3-Dibrompropan, 1,1,1,3-Tetrabromheptan, 1,1,3-Tribromheptan bzw. 1,2-Dibromheptan behandelt. Die Emulsion enthält 0,5 Masse% C12-C14-Kalziumalkylbenzolsul- fonat und 0,01 Masse% Dimethylsulfoxid. Der Verbrauch an Präparat beträgt 10 kg/ha. Die Prüfergebnisse sind in der Tabelle 11 angegeben. Die gleichen Ergebnisse sind bei der Behandlung von diploidem Roggen Chulpan in der VI. Periode der Organogenese erhalten.

SMILES | Kornzahl der Ähre bei freier Bestäubung [1] | Kornzahl der Ähre im Isolator [1] | Prozentsatz der Sterilität [1] | Prozentsatz des Ansetzens von Samen bei freier Bestäubung [1] | Kornzahl der Ähre bei freier Bestäubung [2] | Kornzahl der Ähre im Isolator [2] | Prozentsatz des Ansetzens von Samen bei freier Bestäubung [2] | pest or weed control at 6000 g/ha [2] | Kornzahl der Ähre bei freier Bestäubung [3] | Kornzahl der Ähre im Isolator [3] | Prozentsatz des Ansetzens von Samen bei freier Bestäubung [3] | pest or weed control at 1 %, 20000 g/ha [4] | Kornzahl der Ähre bei freier Bestäubung [5] | Kornzahl der Ähre unter Isolator [5] | Prozentsatz der Sterilität [5] | Prozentsatz des Ansetzens von Samen bei freier Bestäubung [5] | Kornzahl der Ähre bei freier Bestäubung (diploidem Roggen Chulpan) | Kornzahl der Ähre im Isolator (diploidem Roggen Chulpan) | Prozentsatz des Ansetzens von Samen bei freier Bestäubung (diploidem Roggen Chulpan) | pest or weed control at 10000 g/ha (diploidem Roggen Chulpan)
ClCC(Br)CC(Br)Br (stereo not shown) [Beispiel 2, 1,1,3-Tribrom-4-chlorbutan] | 42,6 | 0,8 | 98,0% | 96,4% | 36,5 | 0,6 | 95,5% | 99.2% | 41,3 | 1,1 | 86,0% | 97.3% | 52,4 | 1,0 | 97,2% | 96,0% | 47,8 | 1,0 | 95,4% | 98%
BrCC(Br)C(Br)Br (stereo not shown) [Beispiel 3, 1,1,2,3-Tetrabrompropan] | 40,1 | 0,6 | 98,5% | 90,7% | 31,8 | 0,3 | 83,2% | 99.1% | 35,1 | 1,0 | 94,1% | 97.3% | 45,7 | 0,2 | 99,6% | 83,7% | 44,3 | 0,4 | 88,4% | 99.2%
